Data on twelve compounds can be found in PubChem BioAssay AID328 (DTP/NCI, 2004).

Several values for one entry are separate records, joined by “and”; a condition that tells them apart may be missing. Equal entries are not always repeated. Inconclusive results and toxic doses are left out.

For the assay, the system named is BDF1 mice, P388 leukemia ip, median survival T/C. The assay can be described thus: NCI In Vivo Anticancer Drug Screen. Data for tumor model P388 Leukemia (intraperitoneal) in B6D2F1 (BDF1) mice. The conditions noted are these: endpoint: median survival time, higher = longer survival. Put shortly: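 Antitumour effect was judged in vivo: survival in drug-treated mice, normalised to that of vehicle-dosed controls, gives the reported T/C.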

The mark [1] stands for this setting: dose: 25.0 mg/kg/injection, schedule: Q01DX009 (ip), vehicle: Klucel (hydroxypropylcellulose) (HPC).
[2] abbreviates: dose: 100.0 mg/kg/injection, schedule: Q04DX003 (ip), vehicle: Klucel (hydroxypropylcellulose) (HPC).
Where [3] appears, read: dose: 200.0 mg/kg/injection, schedule: Q04DX003 (ip), vehicle: Klucel (hydroxypropylcellulose) (HPC).
[4] abbreviates: dose: 400.0 mg/kg/injection, schedule: Q04DX003 (ip), vehicle: Klucel (hydroxypropylcellulose) (HPC).

Consider `Cc1c2ccncc2c(C)c2c1[nH]c1ccccc12`, for which the T/C was 163 % of control (dose: 10.0 mg/kg/injection, schedule: Q01DX010 (ip), vehicle: saline); 117 % of control (dose: 14.4 mg/kg/injection, schedule: Q04DX003 (ip), vehicle: clinical formulation); 175 % of control (dose: 15.0 mg/kg/injection, schedule: Q01DX009 (ip), vehicle: water); 166 % of control (dose: 15.0 mg/kg/injection, schedule: Q04DX003 (ip), vehicle: water); 159 % of control and 179 % of control (dose: 20.0 mg/kg/injection, schedule: Q01DX010 (ip), vehicle: saline); 172 % of control and 176 % of control (dose: 21.6 mg/kg/injection, schedule: Q04DX003 (ip), vehicle: water). Moreover, the T/C was 184 % of control (dose: 24.0 mg/kg/injection, schedule: Q04DX003 (ip), vehicle: clinical formulation); 208 % of control (dose: 30.0 mg/kg/injection, schedule: Q04DX003 (ip), vehicle: water); 235 % of control and 215 % of control (dose: 36.0 mg/kg/injection, schedule: Q04DX003 (ip), vehicle: water); 150 % of control (dose: 40.0 mg/kg/injection, schedule: Q01DX010 (ip), vehicle: saline); 208 % of control (dose: 40.0 mg/kg/injection, schedule: Q04DX003 (ip), vehicle: clinical formulation); 200 % of control (dose: 100.0 mg/kg/injection, schedule: Q04DX002 (ip), vehicle: Klucel (hydroxypropylcellulose) (HPC)). The T/C (dose: 120.0 mg/kg/injection, schedule: Q04DX003 (ip), vehicle: water) is 100 % of control; the T/C (dose: 200.0 mg/kg/injection, schedule: Q04DX002 (ip), vehicle: Klucel (hydroxypropylcellulose) (HPC)) is 190 % of control; the T/C (dose: 400.0 mg/kg/injection, schedule: Q04DX002 (ip), vehicle: Klucel (hydroxypropylcellulose) (HPC)) is 90 % of control.

Regarding `O=C1C(Br)=CC(=NCl)C=C1Br`, the T/C is 118 % of control (dose: 3.13 mg/kg/injection, schedule: Q01DX009 (ip), vehicle: Klucel (hydroxypropylcellulose) (HPC)); 112 % of control (dose: 6.25 mg/kg/injection, schedule: Q01DX009 (ip), vehicle: Klucel (hydroxypropylcellulose) (HPC)); 120 % of control (dose: 12.5 mg/kg/injection, schedule: Q01DX009 (ip), vehicle: Klucel (hydroxypropylcellulose) (HPC)); 103 % of control under setting [1].

For `COc1ccc(CCNC(=O)CCN2C(=O)c3ccccc3C2=O)cc1OC`, the T/C is, setting by setting: (dose: 100.0 mg/kg/injection, schedule: Q04DX003 (ip), vehicle: saline with Tween-80) 104 % of control; (dose: 200.0 mg/kg/injection, schedule: Q04DX003 (ip), vehicle: saline with Tween-80) 90 % of control; (dose: 400.0 mg/kg/injection, schedule: Q04DX003 (ip), vehicle: saline with Tween-80) 100 % of control.

For `FC(F)(F)C(Cl)Br` (configuration not stated), the T/C by setting is: (dose: 100.0 mg/kg/injection, schedule: Q01DX001 (ip), vehicle: saline) 90 % of control; (dose: 150.0 mg/kg/injection, schedule: Q04DX003 (ip), vehicle: saline) 86 % of control; (dose: 200.0 mg/kg/injection, schedule: Q01DX001 (ip), vehicle: saline) 90 % of control; (dose: 225.0 mg/kg/injection, schedule: Q04DX003 (ip), vehicle: saline) 100 % of control; (dose: 335.0 mg/kg/injection, schedule: Q04DX003 (ip), vehicle: saline) 86 % of control; (dose: 400.0 mg/kg/injection, schedule: Q01DX001 (ip), vehicle: saline) 100 % of control.

For `O=C1C=C(Nc2ccc(F)cc2)C(Nc2ccc(F)cc2)=CC1=O`, the T/C reads like this: (dose: 87.5 mg/kg/injection, schedule: Q01DX009 (ip), vehicle: saline with Tween-80) 87 % of control; (dose: 350.0 mg/kg/injection, schedule: Q01DX009 (ip), vehicle: saline with Tween-80) 91 % of control.

Take `O=C1CCSC(=O)N1SC(Cl)(Cl)Cl`: the T/C reads like this: (dose: 12.0 mg/kg/injection, schedule: Q01DX009 (ip), vehicle: saline with Tween-80) 120 % of control; (dose: 25.0 mg/kg/injection, schedule: Q01DX009 (ip), vehicle: saline with Tween-80) 110 % of control; (dose: 50.0 mg/kg/injection, schedule: Q01DX009 (ip), vehicle: saline with Tween-80) 100 % of control.

`O=C(O)C1CC2c3ccccc3C1c1ccccc12` (configuration not stated): the T/C reads like this: under setting [2], 90 % of control; under setting [3], 95 % of control; under setting [4], 109 % of control.

As for `CC[C@](C)(O)C(=O)O[C@H]1C(=O)O[C@@H]2C[C@H]3C(C)=CC(=O)[C@@H](O)[C@]3(C)[C@H]3[C@@]4(O)OC[C@]32[C@@H]1[C@@H](C)[C@H]4O`, the T/C by setting is: (dose: 0.06 mg/kg/injection, schedule: Q01DX009 (ip), vehicle: saline with Tween-80) 100 % of control; (dose: 0.07 mg/kg/injection, schedule: Q01DX010 (ip), vehicle: saline) 105 % of control; (dose: 0.12 mg/kg/injection, schedule: Q01DX009 (ip), vehicle: saline with Tween-80) 100 % of control; (dose: 0.12 mg/kg/injection, schedule: Q01DX009 (ip), vehicle: saline) 100 % of control; (dose: 0.15 mg/kg/injection, schedule: Q01DX010 (ip), vehicle: saline) 95 % of control; (dose: 0.2 mg/kg/injection, schedule: Q01DX010 (ip), vehicle: saline) 100 % of control. For the same compound, the T/C was 108 % of control (dose: 0.25 mg/kg/injection, schedule: Q01DX009 (ip), vehicle: saline); 177 % of control (dose: 0.25 mg/kg/injection, schedule: Q01DX010 (ip), vehicle: steriod suspending solution); 109 % of control and 110 % of control (dose: 0.3 mg/kg/injection, schedule: Q01DX010 (ip), vehicle: saline); 104 % of control (dose: 0.44 mg/kg/injection, schedule: Q01DX010 (ip), vehicle: saline); 104 % of control (dose: 0.5 mg/kg/injection, schedule: Q01DX009 (ip), vehicle: saline); 231 % of control (dose: 0.5 mg/kg/injection, schedule: Q01DX010 (ip), vehicle: steriod suspending solution). The T/C runs as follows: (dose: 0.51 mg/kg/injection, schedule: Q01DX009 (ip), vehicle: saline with Tween-80) 161 % of control; (dose: 0.6 mg/kg/injection, schedule: Q01DX010 (ip), vehicle: saline) 150 % of control; (dose: 0.64 mg/kg/injection, schedule: Q01DX009 (ip), vehicle: saline with Tween-80) 171 % of control; (dose: 0.66 mg/kg/injection, schedule: Q01DX010 (ip), vehicle: saline) 122 % of control; (dose: 1.0 mg/kg/injection, schedule: Q01DX009 (ip), vehicle: saline + alcohol) 87 % of control.

Turning to `N#CCCN1CCCCCC1`, the T/C is 104 % of control (dose: 15.0 mg/kg/injection, schedule: Q01DX009 (ip), vehicle: saline with Tween-80); 89 % of control (dose: 30.0 mg/kg/injection, schedule: Q01DX009 (ip), vehicle: saline with Tween-80); 98 % of control (dose: 60.0 mg/kg/injection, schedule: Q01DX009 (ip), vehicle: saline with Tween-80).

`Cc1ccnc(=O)[nH]1`: the T/C (dose: 3.13 mg/kg/injection, schedule: Q01DX009 (ip), vehicle: saline) was 103 % of control; the T/C (dose: 6.25 mg/kg/injection, schedule: Q01DX009 (ip), vehicle: saline) is 115 % of control; the T/C (dose: 12.5 mg/kg/injection, schedule: Q01DX009 (ip), vehicle: saline) is 99 % of control; the T/C (dose: 25.0 mg/kg/injection, schedule: Q01DX009 (ip), vehicle: saline) is 105 % of control.

In the case of `NC(=O)C(N)CCSCC(=O)O` (configuration not stated), the T/C reads like this: (dose: 50.0 mg/kg/injection, schedule: Q01DX009 (ip), vehicle: saline) 88 % of control; (dose: 100.0 mg/kg/injection, schedule: Q01DX009 (ip), vehicle: saline) 91 % of control; (dose: 200.0 mg/kg/injection, schedule: Q01DX009 (ip), vehicle: saline) 94 % of control.

Consider `Nc1c(Br)cc(Br)cc1Br`, for which the T/C by setting is: (dose: 6.0 mg/kg/injection, schedule: Q01DX009 (ip), vehicle: Klucel (hydroxypropylcellulose) (HPC)) 110 % of control; (dose: 12.0 mg/kg/injection, schedule: Q01DX009 (ip), vehicle: Klucel (hydroxypropylcellulose) (HPC)) 105 % of control; under setting [1], 105 % of control; (dose: 100.0 mg/kg/injection, schedule: Q01DX009 (ip), vehicle: Klucel (hydroxypropylcellulose) (HPC)) 105 % of control; under setting [2], 100 % of control; (dose: 200.0 mg/kg/injection, schedule: Q01DX009 (ip), vehicle: Klucel (hydroxypropylcellulose) (HPC)) 100 % of control. Moreover, the T/C by setting is: under setting [3], 95 % of control; (dose: 400.0 mg/kg/injection, schedule: Q01DX009 (ip), vehicle: Klucel (hydroxypropylcellulose) (HPC)) 111 % of control; under setting [4], 100 % of control.
